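Five concentrations, 48 hours, 96-well plates. GI50 marks 50% less growth.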 The source made the active and inactive calls. Rule as the data show it: active = GI50 up to about 1.1 µM and inactive = higher.
Assays:
Test in all cases: inhibition of tumour cell growth, NCI panel, 48 h
[1] = system: SNB-19
[2] = system: CAKI-1
[3] = system: 786-0
[4] = system: A549
[5] = system: UACC-257
[6] = system: SN12C
[7] = system: SK-MEL-28
[8] = system: TK-10
[9] = system: HOP-92
[10] = system: NCI/ADR-RES
[11] = system: COLO 205
[12] = system: Hs-578T
[13] = system: U-251
[14] = system: NCI-H460
[15] = system: SK-OV-3
[16] = system: HOP-62
[17] = system: SR
[18] = system: Malme-3M
[19] = system: MCF7

| Structure (SMILES) | GI50 [1] | GI50 [2] | GI50 [3] | GI50 [4] | GI50 [5] | GI50 [6] | GI50 [7] | GI50 [8] | GI50 [9] | GI50 [10] | GI50 [11] | GI50 [12] | GI50 [13] | GI50 [14] | GI50 [15] | GI50 [16] | GI50 [17] | GI50 [18] | GI50 [19] |
| --- | --- | --- | --- | --- | --- | --- | --- | --- | --- | --- | --- | --- | --- | --- | --- | --- | --- | --- | --- |
| COc1cc(Cl)c(CC(=O)c2c[nH]c3ccccc23)cc1OC | 13.4 µM (inactive) | > 36.1 µM (inactive) | 13.7 µM (inactive) | > 100 µM (inactive) | > 100 µM (inactive) | 58.5 µM (inactive) | > 100 µM (inactive) | 16.9 µM (inactive) | 5.36 µM (inactive) | > 81.7 µM (inactive) | > 100 µM (inactive) | 23.6 µM (inactive) | 8.38 µM (inactive) | > 100 µM (inactive) | 8.07 µM (inactive) | 5.3 µM (inactive) | > 100 µM (inactive) | > 100 µM (inactive) | > 100 µM (inactive) |
| O=[N+]([O-])c1ccc(CSCc2ccc(Cl)cc2)cc1 | > 100 µM (inactive) | > 100 µM (inactive) | > 100 µM (inactive) | > 100 µM (inactive) | > 100 µM (inactive) | > 100 µM (inactive) | > 100 µM (inactive) | > 100 µM (inactive) | 47.8 µM (inactive) | > 100 µM (inactive) | > 100 µM (inactive) | > 100 µM (inactive) | > 100 µM (inactive) | > 100 µM (inactive) | > 100 µM (inactive) | > 100 µM (inactive) | 23.8 µM (inactive) | > 100 µM (inactive) | > 100 µM (inactive) |
| CCCCCCN1CCc2c(C)c(C#N)c3nc4ccccc4n3c21 | 80.4 µM (inactive) |  | 42.9 µM (inactive) | 50.2 µM (inactive) | 16.3 µM (inactive) | > 100 µM (inactive) | 33.7 µM (inactive) | > 100 µM (inactive) | 22.5 µM (inactive) | > 100 µM (inactive) | 29.9 µM (inactive) | 8.73 µM (inactive) | 12.4 µM (inactive) | 16 µM (inactive) | > 100 µM (inactive) | 92.9 µM (inactive) | > 100 µM (inactive) | 83.2 µM (inactive) | 14.5 µM (inactive) |
| CC1CCC2C(C)C3C(CC4C5CC=C6CC(OC7OC(CO)C(O)C(OC8OC(CO)C(O)C(O)C8O)C7OC7OC(C)C(O)C(O)C7O)CCC6(C)C5CCC43C)N2C1 (configuration not stated) | 10.5 µM (inactive) | 11.3 µM (inactive) | 9.42 µM (inactive) | 7.05 µM (inactive) | 16.1 µM (inactive) | 11.1 µM (inactive) | 7.94 µM (inactive) | 16.3 µM (inactive) | 17.5 µM (inactive) | 17.9 µM (inactive) | 16.7 µM (inactive) | 13.7 µM (inactive) | 16 µM (inactive) | 18.5 µM (inactive) | 16 µM (inactive) | 17.3 µM (inactive) | 15.1 µM (inactive) | 27.7 µM (inactive) | 13.8 µM (inactive) |
| CC(C)(C)OC(=O)c1ccc(NCc2cc(O)ccc2O)cc1 | 8.07 µM (inactive) | 0.676 µM (active) | 2.32 µM (inactive) | 7.4 µM (inactive) | 3.78 µM (inactive) | 1.27 µM (inactive) | 2.03 µM (inactive) | 2.13 µM (inactive) | 1.34 µM (inactive) | 1.73 µM (inactive) | 2.08 µM (inactive) | 1.69 µM (inactive) | 1.95 µM (inactive) | 10.7 µM (inactive) | 6.05 µM (inactive) | 8.97 µM (inactive) | 0.916 µM (active) | 1.85 µM (inactive) | 3.61 µM (inactive) |
| Cc1cn(C2CC(OC(=O)c3ccc(Cl)cc3)C(COC(=O)c3ccc(Cl)cc3)O2)c(=O)[nH]c1=O (configuration not stated) | > 100 µM (inactive) | > 100 µM (inactive) | > 100 µM (inactive) | > 100 µM (inactive) | > 100 µM (inactive) | > 100 µM (inactive) | > 100 µM (inactive) | > 100 µM (inactive) | > 100 µM (inactive) | > 100 µM (inactive) | > 100 µM (inactive) | > 100 µM (inactive) | > 100 µM (inactive) | > 100 µM (inactive) | > 100 µM (inactive) | > 100 µM (inactive) | > 100 µM (inactive) | > 100 µM (inactive) | > 100 µM (inactive) |
| CCOC(=O)C#Cc1ccc(C#CC(=O)OCC)cc1 | 5.02 µM (inactive) | 2.35 µM (inactive) | 4.35 µM (inactive) | 3.75 µM (inactive) | 22.1 µM (inactive) | 3.21 µM (inactive) | 2.84 µM (inactive) | 2.9 µM (inactive) | 5.69 µM (inactive) | 6.43 µM (inactive) | 6.21 µM (inactive) | 3.15 µM (inactive) | 2.51 µM (inactive) | 5.13 µM (inactive) | 9.84 µM (inactive) | 3.81 µM (inactive) | 0.604 µM (active) | 3.35 µM (inactive) | 1.54 µM (inactive) |
